According to ChEMBL document CHEMBL1649268, “Comparative in vitro activity profile of oritavancin against recent gram-positive clinical isolates” (2009):
Values after ≈ are worked out from the molar mass of the structure shown.

Columns and labels:
Staphylococcus aureus [1] = assay: Antimicrobial activity against oxacillin-susceptible Staphylococcus aureus clinical isolates by broth microdilution method; type: functional
[2] = tested on: Staphylococcus epidermidis; assay: Antimicrobial activity against oxacillin-resistant Staphylococcus epidermidis clinical isolates assessed as resistant isolates by broth microdilution method; type: functional
Streptococcus agalactiae [3] = assay: Antimicrobial activity against erythromycin-susceptible Streptococcus agalactiae clinical isolates assessed as resistant isolates by broth microdilution method; type: functional
[4] = Antimicrobial activity against erythromycin-susceptible Streptococcus Group C clinical isolates assessed as resistant isolates by broth microdilution method; type: functional, Streptococcus sp. 'group C'
Streptococcus pyogenes [5] = assay: Antimicrobial activity against erythromycin-susceptible Streptococcus pyogenes clinical isolates by broth microdilution method; type: functional
Streptococcus agalactiae [6] = assay: Antimicrobial activity against erythromycin-nonsusceptible Streptococcus agalactiae clinical isolates assessed as percent susceptible isolates by broth microdilution method; type: functional
Streptococcus pyogenes [7] = assay: Antimicrobial activity against Streptococcus pyogenes clinical isolates assessed as resistant isolates by broth microdilution method; type: functional
[8] = Antimicrobial activity against erythromycin-susceptible Streptococcus Group C clinical isolates assessed as percent susceptible isolates by broth microdilution method; type: functional, Streptococcus sp. 'group C'
Streptococcus [9] = assay: Antimicrobial activity against Streptococcus Group F clinical isolates by broth microdilution method; type: functional
Streptococcus agalactiae [10] = assay: Antimicrobial activity against Streptococcus agalactiae clinical isolates by broth microdilution method; type: functional
Streptococcus [11] = assay: Antimicrobial activity against erythromycin-susceptible Streptococcus Group F clinical isolates assessed as percent susceptible isolates by broth microdilution method; type: functional
[12] = Antimicrobial activity against erythromycin-susceptible Streptococcus Group G clinical isolates by broth microdilution method; type: functional; conditions: Streptococcus sp. 'group G'
Staphylococcus aureus [13] = assay: Antimicrobial activity against oxacillin-resistant Staphylococcus aureus clinical isolates assessed as resistant isolates by broth microdilution method; type: functional
[14] = Antimicrobial activity against erythromycin-nonsusceptible Streptococcus Group G clinical isolates by broth microdilution method; type: functional; conditions: Streptococcus sp. 'group G'
Streptococcus agalactiae [15] = assay: Antimicrobial activity against erythromycin-nonsusceptible Streptococcus agalactiae clinical isolates by broth microdilution method; type: functional
[16] = tested on: Staphylococcus haemolyticus; assay: Antimicrobial activity against Staphylococcus haemolyticus clinical isolates assessed as resistant isolates by broth microdilution method; type: functional
[17] = Antimicrobial activity against erythromycin-susceptible Streptococcus Group C clinical isolates by broth microdilution method; type: functional; conditions: Streptococcus sp. 'group C'
Streptococcus agalactiae [18] = assay: Antimicrobial activity against erythromycin-susceptible Streptococcus agalactiae clinical isolates by broth microdilution method; type: functional
Streptococcus pyogenes [19] = assay: Antimicrobial activity against erythromycin-susceptible Streptococcus pyogenes clinical isolates assessed as resistant isolates by broth microdilution method; type: functional
[20] = tested on: Staphylococcus epidermidis; assay: Antimicrobial activity against oxacillin-susceptible Staphylococcus epidermidis clinical isolates assessed as resistant isolates by broth microdilution method; type: functional
Streptococcus pneumoniae [21] = assay: Antimicrobial activity against Streptococcus pneumoniae clinical isolates assessed as percent susceptible isolates by broth microdilution method; type: functional
Streptococcus pneumoniae [22] = assay: Antimicrobial activity against penicillin-susceptible Streptococcus pneumoniae clinical isolates assessed as percent susceptible isolates by broth microdilution method; type: functional
[23] = Antimicrobial activity against Streptococcus Group C clinical isolates assessed as percent susceptible isolates by broth microdilution method; type: functional, Streptococcus sp. 'group C'
Streptococcus agalactiae [24] = assay: Antimicrobial activity against erythromycin-susceptible Streptococcus agalactiae clinical isolates assessed as percent susceptible isolates by broth microdilution method; type: functional
Streptococcus pyogenes [25] = assay: Antimicrobial activity against erythromycin-nonsusceptible Streptococcus pyogenes clinical isolates assessed as percent susceptible isolates by broth microdilution method; type: functional
[26] = Antimicrobial activity against erythromycin-nonsusceptible Streptococcus Group C clinical isolates by broth microdilution method; type: functional; conditions: Streptococcus sp. 'group C'
[27] = tested on: Staphylococcus epidermidis; assay: Antimicrobial activity against Staphylococcus epidermidis clinical isolates assessed as percent susceptible isolates by broth microdilution method; type: functional
[28] = tested on: Staphylococcus epidermidis; assay: Antimicrobial activity against oxacillin-susceptible Staphylococcus epidermidis clinical isolates by broth microdilution method; type: functional
[29] = Antimicrobial activity against Streptococcus Group C clinical isolates by broth microdilution method; type: functional; conditions: Streptococcus sp. 'group C'
Streptococcus agalactiae [30] = assay: Antimicrobial activity against Streptococcus agalactiae clinical isolates assessed as percent susceptible isolates by broth microdilution method; type: functional
Streptococcus pneumoniae [31] = assay: Antimicrobial activity against penicillin-resistant Streptococcus pneumoniae clinical isolates assessed as percent susceptible isolates by broth microdilution method; type: functional
[32] = Antimicrobial activity against erythromycin-susceptible Streptococcus Group G clinical isolates assessed as percent susceptible isolates by broth microdilution method; type: functional, Streptococcus sp. 'group G'
Streptococcus agalactiae [33] = assay: Antimicrobial activity against erythromycin-nonsusceptible Streptococcus agalactiae clinical isolates assessed as resistant isolates by broth microdilution method; type: functional
Streptococcus pneumoniae [34] = assay: Antimicrobial activity against penicillin-intermediate Streptococcus pneumoniae clinical isolates assessed as percent susceptible isolates by broth microdilution method; type: functional
Streptococcus pyogenes [35] = assay: Antimicrobial activity against Streptococcus pyogenes clinical isolates assessed as percent susceptible isolates by broth microdilution method; type: functional
[36] = tested on: Staphylococcus epidermidis; assay: Antimicrobial activity against Staphylococcus epidermidis clinical isolates assessed as resistant isolates by broth microdilution method; type: functional
[37] = Antimicrobial activity against Streptococcus Group G clinical isolates assessed as percent susceptible isolates by broth microdilution method; type: functional, Streptococcus sp. 'group G'
Streptococcus [38] = assay: Antimicrobial activity against erythromycin-nonsusceptible Streptococcus Group F clinical isolates by broth microdilution method; type: functional
Streptococcus [39] = assay: Antimicrobial activity against erythromycin-susceptible Streptococcus Group F clinical isolates by broth microdilution method; type: functional
Streptococcus pyogenes [40] = assay: Antimicrobial activity against erythromycin-susceptible Streptococcus pyogenes clinical isolates assessed as percent susceptible isolates by broth microdilution method; type: functional
Streptococcus pyogenes [41] = assay: Antimicrobial activity against Streptococcus pyogenes clinical isolates by broth microdilution method; type: functional
Streptococcus agalactiae [42] = assay: Antimicrobial activity against Streptococcus agalactiae clinical isolates assessed as resistant isolates by broth microdilution method; type: functional
[43] = tested on: Staphylococcus haemolyticus; assay: Antimicrobial activity against Staphylococcus haemolyticus clinical isolates by broth microdilution method; type: functional
Streptococcus pyogenes [44] = assay: Antimicrobial activity against erythromycin-nonsusceptible Streptococcus pyogenes clinical isolates by broth microdilution method; type: functional
Streptococcus pneumoniae [45] = assay: Antimicrobial activity against Streptococcus pneumoniae clinical isolates by broth microdilution method; type: functional
Streptococcus pneumoniae [46] = assay: Antimicrobial activity against penicillin-intermediate Streptococcus pneumoniae clinical isolates by broth microdilution method; type: functional
Streptococcus pneumoniae [47] = assay: Antimicrobial activity against penicillin-resistant Streptococcus pneumoniae clinical isolates by broth microdilution method; type: functional
Streptococcus pneumoniae [48] = assay: Antimicrobial activity against penicillin-susceptible Streptococcus pneumoniae clinical isolates by broth microdilution method; type: functional
Streptococcus pyogenes [49] = assay: Antimicrobial activity against erythromycin-nonsusceptible Streptococcus pyogenes clinical isolates assessed as resistant isolates by broth microdilution method; type: functional
[50] = Antimicrobial activity against Streptococcus Group G clinical isolates by broth microdilution method; type: functional; conditions: Streptococcus sp. 'group G'
[51] = Antimicrobial activity against erythromycin-nonsusceptible Streptococcus Group C clinical isolates assessed as percent susceptible isolates by broth microdilution method; type: functional, Streptococcus sp. 'group C'

CCC[C@@H]1C[C@@H](C(=O)N[C@@H]([C@H]2O[C@H](SC)[C@H](O)[C@@H](O)[C@H]2O)[C@H](C)Cl)N(C)C1 [CLINDAMYCIN]
MIC90 (Staphylococcus aureus [1]): 0.25 µg/mL (≈ 0.588 µM) | Percent of isolates resistant [2]: 43.3% | Activity (Streptococcus agalactiae [3]): 1% | Activity [4]: 0% | MIC90 (Streptococcus pyogenes [5]): 0.06 µg/mL (≈ 0.141 µM) | Activity (Streptococcus agalactiae [6]): 41% | Activity (Streptococcus pyogenes [7]): 3.9% | Activity [8]: 100% | MIC90 (Streptococcus [9]): 0.06 µg/mL (≈ 0.141 µM) | MIC90 (Streptococcus agalactiae [10]): > 1 µg/mL | Activity (Streptococcus [11]): 100% | MIC90 [12]: 0.06 µg/mL (≈ 0.141 µM) | Percent resistant isolates (Staphylococcus aureus [13]): 37.9% | MIC90 [14]: > 1 µg/mL | MIC90 (Streptococcus agalactiae [15]): > 1 µg/mL | Resistant isolates [16]: 27.9% | MIC90 [17]: 0.06 µg/mL (≈ 0.141 µM) | MIC90 (Streptococcus agalactiae [18]): 0.06 µg/mL (≈ 0.141 µM) | Activity (Streptococcus pyogenes [19]): 0% | Percent of isolates resistant [20]: 11% | Activity (Streptococcus pneumoniae [21]): 86.9% | Activity (Streptococcus pneumoniae [22]): 97.2% | Activity [23]: 96.4% | Activity (Streptococcus agalactiae [24]): 99% | Activity (Streptococcus pyogenes [25]): 71% | MIC90 [26]: > 1 µg/mL | Activity [27]: 65% | MIC90 [28]: > 2 µg/mL | MIC90 [29]: 0.06 µg/mL (≈ 0.141 µM) | Activity (Streptococcus agalactiae [30]): 81.9% | Activity (Streptococcus pneumoniae [31]): 45.3% | Activity [32]: 100% | Activity (Streptococcus agalactiae [33]): 57.4% | Activity (Streptococcus pneumoniae [34]): 84.7% | Activity (Streptococcus pyogenes [35]): 96% | Percent of isolates resistant [36]: 34.5% | Activity [37]: 96.4% | MIC90 (Streptococcus [38]): > 1 µg/mL | MIC90 (Streptococcus [39]): 0.06 µg/mL (≈ 0.141 µM) | Activity (Streptococcus pyogenes [40]): 100% | MIC90 (Streptococcus pyogenes [41]): 0.06 µg/mL (≈ 0.141 µM) | Activity (Streptococcus agalactiae [42]): 17.6% | MIC90 [43]: > 2 µg/mL | MIC90 (Streptococcus pyogenes [44]): > 1 µg/mL | MIC90 (Streptococcus pneumoniae [45]): > 1 µg/mL | MIC90 (Streptococcus pneumoniae [46]): > 1 µg/mL | MIC (Streptococcus pneumoniae [47]): > 0.03 µg/mL | MIC90 (Streptococcus pneumoniae [48]): 0.06 µg/mL (≈ 0.141 µM) | Activity (Streptococcus pyogenes [49]): 28.2% | MIC90 [50]: 0.06 µg/mL (≈ 0.141 µM) | Activity [51]: 82.4%
